Measurements: patent US7414041B2 (Trustees Of Tufts College, priority 1991, dated 2008)
pIC50: −log10 of the molar value. Read-outs that look alike come from different tables or passages of the source.

Tests used:
E. faecalis 158 (Tet L) = experiment: MIC/MLC chart, analog with and without doxycycline; format: cell-based; conditions: Chart 6C, doxy = number in box (line above), listed as H analog alone
S. aureus 4250 (Tet K) = experiment: MIC/MLC chart, analog with and without doxycycline; format: cell-based; conditions: for MIC/MLC chart symbol: Chart 6B, doxy = number in box (line above), listed as H analog alone
E. faecalis ATCC 9790 = experiment: MIC of tetracycline susceptible strains, C5 esters; format: cell-based; conditions: Enterococcus faecalis, ATCC9790; E. faecalis ATCC 9790, alone; read-out: MIC
S. aureus 450 = experiment: MIC of tetracycline susceptible strains, C5 esters; format: cell-based; conditions: Staphylococcus aureus; S. aureus 450, alone; read-out: MIC
E. faecalis 211 (Tet M) = experiment: MIC/MLC chart, analog with and without doxycycline; format: cell-based; conditions: for MIC/MLC chart symbol: Chart 6D, doxy = number in box (line above), listed as H analog alone;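 on all read-outs here: broth checkerboard of two-fold drug dilutions, alone and mixed with doxycycline, bacteria near 5×10^5 cells/ml, 18 h incubation at 37 °C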
[1] = molecular target: T1, TET proteins responsible for tetracycline efflux (Class B tetracycline resistance determinant, strain D1-209) (Escherichia coli, UniProt P02980); experiment: biochemical; set-up: species or system E. coli
T1 construct: Everted vesicles, to which the TET proteins responsible for tetracycline efflux are attached; endogenous in cells; host or cells: E. coli strain D1-209 (everted membrane vesicles)

E. coli D1-299 (Tet A) = format: cell-based; conditions: for MIC/MLC chart symbol: Chart 6A, doxy = number in box (line above), listed as H analog alone;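 on all read-outs here: E. coli at roughly 5×10^5 cells/ml in L broth, analog and doxycycline alone or mixed in two-fold dilutions from 50 to under 1 µg/ml, 18 h at 37 °C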
E. coli ML308 = experiment: MIC of tetracycline susceptible strains, C5 esters; format: cell-based; conditions: Escherichia coli; E. coli ML308, alone; read-out: MIC
[2] = analog .195 μg/ml + doxycycline 1.56 μg/ml
[3] = analog .195 μg/ml + doxycycline 3.12 μg/ml
[4] = analog .195 μg/ml + doxycycline 6.25 μg/ml
[5] = analog .39 μg/ml + doxycycline 1.56 μg/ml
[6] = analog .39 μg/ml + doxycycline 3.12 μg/ml
[7] = analog alone .195 μg/ml (Analog Control)
[8] = analog alone .39 μg/ml (Analog Control)

T1 sequence (P02980 whole entry): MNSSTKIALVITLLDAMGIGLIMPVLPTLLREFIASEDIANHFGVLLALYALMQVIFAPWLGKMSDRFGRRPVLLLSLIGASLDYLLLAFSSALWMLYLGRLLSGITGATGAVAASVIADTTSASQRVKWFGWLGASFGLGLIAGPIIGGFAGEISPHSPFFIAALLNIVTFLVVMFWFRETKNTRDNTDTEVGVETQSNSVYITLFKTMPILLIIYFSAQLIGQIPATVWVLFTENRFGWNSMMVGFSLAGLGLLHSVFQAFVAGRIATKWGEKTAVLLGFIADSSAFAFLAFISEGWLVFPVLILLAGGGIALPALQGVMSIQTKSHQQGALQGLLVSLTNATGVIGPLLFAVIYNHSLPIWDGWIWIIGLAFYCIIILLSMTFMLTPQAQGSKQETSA

C=C1c2cccc(O)c2C(=O)C2=C(O)C3(O)C(=O)C(C(N)=O)=C(O)C(N(C)C)C3C(OC(=O)CC)C12 (centres unmarked) [Cmpd 2, 5 proprionate methacycline]
1.56 mg/L: MIC in combination (S. aureus 4250 (Tet K); with 1.55 μg/ml doxycycline (Chart 6B))
↓ and ◯: MIC/MLC chart symbol (E. faecalis 158 (Tet L); analog 1.56 μg/ml)
0.8 mg/L: MIC (E. faecalis ATCC 9790)
1.3 mg/L: MIC (S. aureus 450)
6.70: pIC50 [1]
↓ and +: MIC/MLC chart symbol (S. aureus 4250 (Tet K); analog .195 μg/ml) | MIC/MLC chart symbol (S. aureus 4250 (Tet K); analog .39 μg/ml) | MIC/MLC chart symbol (E. faecalis 211 (Tet M); analog 6.25 μg/ml)
◯ and +: MIC/MLC chart symbol (E. faecalis 158 (Tet L); analog .195 μg/ml) | MIC/MLC chart symbol (E. faecalis 158 (Tet L); analog .39 μg/ml) | MIC/MLC chart symbol (E. faecalis 158 (Tet L); analog .78 μg/ml) | MIC/MLC chart symbol (S. aureus 4250 (Tet K); analog .78 μg/ml) | MIC/MLC chart symbol (E. faecalis 211 (Tet M); analog 1.56 μg/ml)
10 mg/L: MIC (E. coli ML308)
↓ and ◯ and +: MIC/MLC chart symbol (S. aureus 4250 (Tet K); analog 1.56 μg/ml)
+: MIC/MLC chart symbol (E. faecalis 211 (Tet M); analog 3.12 μg/ml) | MIC/MLC chart symbol (E. faecalis 211 (Tet M); analog .195 μg/ml) | MIC/MLC chart symbol (E. faecalis 211 (Tet M); analog .39 μg/ml) | MIC/MLC chart symbol (E. faecalis 211 (Tet M); analog .78 μg/ml) | MIC/MLC chart symbol (E. coli D1-299 (Tet A); analog 1.56 μg/ml) | MIC/MLC chart symbol (E. coli D1-299 (Tet A); analog 3.12 μg/ml) | MIC/MLC chart symbol (E. coli D1-299 (Tet A); analog 6.25 μg/ml) | MIC/MLC chart symbol (E. coli D1-299 (Tet A); analog 12.5 μg/ml) | MIC/MLC chart symbol (E. coli D1-299 (Tet A); analog 25 μg/ml) | MIC/MLC chart symbol (E. coli D1-299 (Tet A); analog .195 μg/ml) | MIC/MLC chart symbol (E. coli D1-299 (Tet A); analog .39 μg/ml) | MIC/MLC chart symbol (E. coli D1-299 (Tet A); analog .78 μg/ml)
0.78 mg/L: MIC in combination (S. aureus 4250 (Tet K); with 6.23 μg/ml doxycycline (Chart 6B))
◯: MIC/MLC chart symbol (E. coli D1-299 (Tet A); analog 3.12 μg/ml, listed as 5-proprionate methacycline) | MIC/MLC chart symbol (E. coli D1-299 (Tet A); analog 6.25 μg/ml, listed as 5-proprionate methacycline) | MIC/MLC chart symbol (E. coli D1-299 (Tet A); analog 25 μg/ml, listed as 5-proprionate methacycline)

CCC(=O)OC1C2C(=C(O)C3(O)C(=O)C(C(N)=O)=C(O)C(N(C)C)C13)C(=O)c1c(O)cccc1C2CSC1CCCC1 (centres unmarked) [Cmpd 5, 13-cyclopentylthio-5-proprionate-6-deoxy tetracycline]
6.25 mg/L: MLC in combination (E. coli D1-299 (Tet A); with 5.9 μg/ml doxycycline (Chart 8A))
+: MIC/MLC chart: growth or killing (E. faecalis 211 (Tet M); [2]) | MIC/MLC chart: growth or killing (E. faecalis 211 (Tet M); [3]) | MIC/MLC chart: growth or killing (E. faecalis 211 (Tet M); [4]) | MIC/MLC chart: growth or killing (E. faecalis 211 (Tet M); [7]) | MIC/MLC chart: growth or killing (E. coli D1-299 (Tet A); analog 1.56 μg/ml + doxycycline 1.55 μg/ml) | MIC/MLC chart: growth or killing (E. coli D1-299 (Tet A); analog 1.56 μg/ml + doxycycline 3.1 μg/ml) | MIC/MLC chart: growth or killing (E. coli D1-299 (Tet A); analog 1.56 μg/ml + doxycycline 6.2 μg/ml) | MIC/MLC chart: growth or killing (E. coli D1-299 (Tet A); analog 3.12 μg/ml + doxycycline 1.53 μg/ml) | MIC/MLC chart: growth or killing (E. coli D1-299 (Tet A); analog 3.12 μg/ml + doxycycline 3.05 μg/ml) | MIC/MLC chart: growth or killing (E. coli D1-299 (Tet A); analog 3.12 μg/ml + doxycycline 6.1 μg/ml) | MIC/MLC chart: growth or killing (E. coli D1-299 (Tet A); analog 6.25 μg/ml + doxycycline 3.0 μg/ml) | MIC/MLC chart: growth or killing (E. coli D1-299 (Tet A); analog 6.25 μg/ml + doxycycline […]) | MIC/MLC chart: growth or killing (E. coli D1-299 (Tet A); analog 12.5 μg/ml + doxycycline 2.8 μg/ml) | MIC/MLC chart: growth or killing (E. coli D1-299 (Tet A); analog 12.5 μg/ml + doxycycline […]) | MIC/MLC chart: growth or killing (E. coli D1-299 (Tet A); analog 25 μg/ml + doxycycline 2.4 μg/ml) | MIC/MLC chart: growth or killing (E. coli D1-299 (Tet A); analog 25 μg/ml + doxycycline […]) | MIC/MLC chart: growth or killing (E. coli D1-299 (Tet A); analog 50 μg/ml + doxycycline 1.56 μg/ml) | MIC/MLC chart: growth or killing (E. coli D1-299 (Tet A); analog 50 μg/ml + doxycycline .78 μg/ml) | MIC/MLC chart: growth or killing (E. coli D1-299 (Tet A); [2]) | MIC/MLC chart: growth or killing (E. coli D1-299 (Tet A); [3]) | MIC/MLC chart: growth or killing (E. coli D1-299 (Tet A); [4]) | MIC/MLC chart: growth or killing (E. coli D1-299 (Tet A); analog .195 μg/ml + doxycycline 12.5 μg/ml) | MIC/MLC chart: growth or killing (E. coli D1-299 (Tet A); analog .195 μg/ml + doxycycline 25.0 μg/ml) | MIC/MLC chart: growth or killing (E. coli D1-299 (Tet A); [5]) | MIC/MLC chart: growth or killing (E. coli D1-299 (Tet A); [6]) | MIC/MLC chart: growth or killing (E. coli D1-299 (Tet A); analog .39 μg/ml + doxycycline 6.25 μg/ml) | MIC/MLC chart: growth or killing (E. coli D1-299 (Tet A); analog .39 μg/ml + doxycycline 12.5 μg/ml) | MIC/MLC chart: growth or killing (E. coli D1-299 (Tet A); analog .78 μg/ml + doxycycline 1.56 μg/ml) | MIC/MLC chart: growth or killing (E. coli D1-299 (Tet A); analog .78 μg/ml + doxycycline 3.12 μg/ml) | MIC/MLC chart: growth or killing (E. coli D1-299 (Tet A); analog .78 μg/ml + doxycycline 6.23 μg/ml) | MIC/MLC chart: growth or killing (E. coli D1-299 (Tet A); analog alone 1.56 μg/ml (Analog Control)) | MIC/MLC chart: growth or killing (E. coli D1-299 (Tet A); analog alone 3.12 μg/ml (Analog Control)) | MIC/MLC chart: growth or killing (E. coli D1-299 (Tet A); analog alone 6.25 μg/ml (Analog Control)) | MIC/MLC chart: growth or killing (E. coli D1-299 (Tet A); analog alone 12.5 μg/ml (Analog Control)) | MIC/MLC chart: growth or killing (E. coli D1-299 (Tet A); analog alone 25.0 μg/ml (Analog Control)) | MIC/MLC chart: growth or killing (E. coli D1-299 (Tet A); analog alone 50.00 μg/ml (Analog Control)) | MIC/MLC chart: growth or killing (E. coli D1-299 (Tet A); [7]) | MIC/MLC chart: growth or killing (E. coli D1-299 (Tet A); [8]) | MIC/MLC chart: growth or killing (E. coli D1-299 (Tet A); analog alone .78 μg/ml (Analog Control))
20 mg/L: MIC (E. coli ML308)
◯: MIC/MLC chart: growth or killing (E. faecalis 211 (Tet M); [5]) | MIC/MLC chart: growth or killing (E. faecalis 211 (Tet M); [6]) | MIC/MLC chart: growth or killing (E. faecalis 211 (Tet M); [8]) | MIC/MLC chart: growth or killing (E. coli D1-299 (Tet A); analog .78 μg/ml + doxycycline 12.4 μg/ml)
↓: MIC/MLC chart: growth or killing (E. coli D1-299 (Tet A); analog .39 μg/ml + doxycycline 24.9 μg/ml)
0.4 mg/L: MIC (E. faecalis ATCC 9790) | MIC (S. aureus 450)
5.48: pIC50 [1]
